In US8906925B2, “Pyrido[4,3-B]indoles containing rigid moieties” (Medivation Technologies, Inc., priority 2008, dated 2014):
Where two headings read alike, the source gives them in different places.

Key:
histamine receptor H1 = histamine receptor H1 (Homo sapiens, UniProt P35367); experiment: Histamine H1 radioligand binding ([3H]Pyrilamine); details: read-out: Histamine Binding (1 μM) H1, percent inhibition of specific binding, 1 μM
Experimental: To evaluate in radioligand binding assays the activity of compounds of the invention, human recombinant histamine H1 receptor expressed in Chinese hamster ovary (CHO) cells (De Backer, M. D. et al., Biochem. Biophys. Res. Comm. 197(3):1601, 1993) in a modified Tris-HCl buffer (50 mM Tris-HCl, pH 7.4, 2 mM MgCl2, 100 mM NaCl, 250 mM Sucrose) was used. Compounds of the invention were incubated with 1.2 nM [^3H]Pyrilamine for 180 min. at 25° C. Non-specific binding was estimated in the presence of 1 μM pyrilamine. Receptor proteins were filtered and washed, the filters were then counted to determine [^3H]Pyrilamine specifically bound. Compounds were screened at 1 μM or lower, using 1% DMSO as vehicle. Biochemical assay results are presented as the percent inhibition of specific binding in Table 8.

[1] = target: human dopamine D2L receptor (Homo sapiens, UniProt P14416); experiment: Dopamine D2L radioligand binding ([3H]Spiperone); details: compound at 1 μM
Sequence of human dopamine D2L receptor (P14416 whole entry): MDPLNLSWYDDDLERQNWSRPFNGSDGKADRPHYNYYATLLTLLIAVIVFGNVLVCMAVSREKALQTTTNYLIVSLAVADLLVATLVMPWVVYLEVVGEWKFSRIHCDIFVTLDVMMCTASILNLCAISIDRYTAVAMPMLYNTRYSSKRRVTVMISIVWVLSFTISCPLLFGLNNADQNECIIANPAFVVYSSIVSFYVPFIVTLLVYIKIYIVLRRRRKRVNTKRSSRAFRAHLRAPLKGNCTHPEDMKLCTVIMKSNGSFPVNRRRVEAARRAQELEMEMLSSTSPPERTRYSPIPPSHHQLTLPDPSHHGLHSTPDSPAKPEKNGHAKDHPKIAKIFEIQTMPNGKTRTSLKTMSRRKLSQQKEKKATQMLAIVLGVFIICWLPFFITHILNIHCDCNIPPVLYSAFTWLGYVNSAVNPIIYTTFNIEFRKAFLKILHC
From the text: Non-specific binding was estimated in the presence of […] Haloperidol. Receptor proteins were filtered and washed, the filters were then counted to determine [^3H]Spiperone specifically bound. […] Biochemical assay results are presented as the percent inhibition of specific binding in Table 9.

[2] = percent inhibition of specific binding, read-out: Inhibition of ligand binding, Dopamine D2L
[3] = […] [3H]Spiperone, read-out: Inhibition of ligand binding, Dopamine D2L (percent inhibition of specific binding)

Sequence of histamine receptor H1 (P35367 whole entry): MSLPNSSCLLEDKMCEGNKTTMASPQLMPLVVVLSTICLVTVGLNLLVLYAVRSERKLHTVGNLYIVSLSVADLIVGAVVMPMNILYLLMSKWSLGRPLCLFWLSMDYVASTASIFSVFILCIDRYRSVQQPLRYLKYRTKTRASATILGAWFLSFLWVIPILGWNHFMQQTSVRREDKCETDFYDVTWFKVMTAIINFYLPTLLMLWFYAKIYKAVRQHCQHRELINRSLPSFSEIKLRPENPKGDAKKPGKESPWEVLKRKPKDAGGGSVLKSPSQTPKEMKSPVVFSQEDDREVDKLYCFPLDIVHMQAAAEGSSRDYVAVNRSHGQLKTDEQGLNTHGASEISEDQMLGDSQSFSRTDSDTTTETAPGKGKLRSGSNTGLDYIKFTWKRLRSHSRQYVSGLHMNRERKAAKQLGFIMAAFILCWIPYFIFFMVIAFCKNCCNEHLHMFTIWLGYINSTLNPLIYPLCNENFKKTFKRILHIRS

inhibition at 1 µM (histamine receptor H1) [%] | inhibition at 1 µM [1, 2] [%] | inhibition at 1 µM [1, 3] [%] | SMILES
23 | 66 | – | CC/C(=C\n1c2c(c3cc(C)ccc31)CN(C)CC2)c1ccncc1 [Compound 283, (E)-2,8-dimethyl-5-(2-(pyridin-4-yl)but-1-enyl)-2,3,4,5-tetrahydro-1H-pyrido[4,3-b]indole]
40 | 84 | – | CC/C(=C\n1c2c(c3cc(Cl)ccc31)CN(C)CC2)c1ccncc1 [Compound 284, (E)-8-chloro-2-methyl-5-(2-(pyridin-4-yl)but-1-enyl)-2,3,4,5-tetrahydro-1H-pyrido[4,3-b]indole]
21 | 53 | – | C/C(=C\n1c2c(c3cc(C)ccc31)C(C)N(C)C(C)C2)c1ccncc1 (stereo not shown) [Compound 285, (E)-1,2,3,8-tetramethyl-5-(2-(pyridin-4-yl)prop-1-enyl)-2,3,4,5-tetrahydro-1H-pyrido[4,3-b]indole]
33 | 72 | – | C/C(=C\n1c2c(c3cc(C)ccc31)CN(C)CC2)c1cnccn1 [Compound 287, (E)-2,8-dimethyl-5-(2-(pyrazin-2-yl)prop-1-enyl)-2,3,4,5-tetrahydro-1H-pyrido[4,3-b]indole]
25 | 92 | – | C/C(=C\n1c2c(c3cc(C)ccc31)CN(CCCO)CC2)c1ccncc1 [Compound 288, (E)-3-(8-methyl-5-(2-(pyridin-4-yl)prop-1-enyl)-3,4-dihydro-1H-pyrido[4,3-b]indol-2(5H)-yl)propan-1-ol]
34 | 90 | – | C/C(=C\n1c2c(c3cc(Cl)ccc31)CN(C)CC2)c1ccncn1 [Compound 289, (E)-8-chloro-2-methyl-5-(2-(pyrimidin-4-yl)prop-1-enyl)-2,3,4,5-tetrahydro-1H-pyrido[4,3-b]indole]
-4 | 0 | – | C/C(=C\n1c2c(c3cc(C)ccc31)CN(CC(F)(F)F)CC2)c1ccncc1 [Compound 291, (E)-8-methyl-5-(2-(pyridin-4-yl)prop-1-enyl)-2-(2,2,2-trifluoroethyl)-2,3,4,5-tetrahydro-1H-pyrido[4,3-b]indole]
11 | 71 | – | C/C(=C\n1c2c(c3cc(C)ccc31)CN(C1CC1)CC2)c1ccncc1 [Compound 292, (E)-2-cyclopropyl-8-methyl-5-(2-(pyridin-4-v)prop-1-enyl)-2,3,4,5-tetrahydro-H-pyrido[4,3-b]indole]
9 | 31 | – | C/C(=C\n1c2c(c3cc(C)ccc31)CN(C)CC2)c1cncnc1 [Compound 293, (E)-2,8-dimethyl-5-(2-(pyrimidin-5-yl)prop-1-enyl)-2,3,4,5-tetrahydro-1H-pyrido[4,3-b]indole]
83 | 83 | – | C/C(=C\n1c2c(c3cc(C)ccc31)CN(C)CC2)c1cccs1 [Compound 294, (E)-2,8-dimethyl-5-(2-(thiophen-2-yl)prop-1-enyl)-2,3,4,5-tetrahydro-1H-pyrido[4,3-b]indole]
65 | 61 | – | C/C(=C\n1c2c(c3cc(C)ccc31)CN(C)CC2)C1CCCCC1 [Compound 320, (E)-5-(2-cyclohexylprop-1-enyl)-2,8-dimethyl-2,3,4,5-tetrahydro-1H-pyrido[4,3-b]indole]
23 | 79 | – | C/C(=C\n1c2c(c3cc(C)ccc31)CN(CCO)CC2)c1ccncc1 [Compound 332, (E)-2-(8-methyl-5-(2-(pyridin-4-yl)prop-1-enyl)-3,4-dihydro-1H-pyrido[4,3-b]indol-2(5H)-yl)ethanol]
29 | 51 | – | C/C(=C\n1c2c(c3cc(Cl)ccc31)CN(C)CC2)c1cnccn1 [Compound 333, (E)-8-chloro-2-methyl-5-(2-(pyrazin-2-yl)prop-1-enyl)-2,3,4,5-tetrahydro-1H-pyrido[4,3-b]indole]
18 | 90 | – | C/C(=C\n1c2c(c3ccc(C(C)C)cc31)CN(C)CC2)c1ccncc1 [Compound 334, (E)-7-isopropyl-2-methyl-5-(2-(pyridin-4-yl)prop-1-enyl)-2,3,4,5-tetrahydro-1H-pyrido[4,3-b]indole]
83 | 97 | – | C/C(=C\n1c2c(c3cc(Cl)ccc31)CN(C)CC2)c1cccs1 [Compound 338, (E)-8-chloro-2-methyl-5-(2-(thiophen-2-yl)prop-1-enyl)-2,3,4,5-tetrahydro-1H-pyrido[4,3-b]indole]
11 | 2 | – | Cc1ccc2c(c1)c1c(n2CC(C)(O)c2ccncc2)CCN(CC(F)(F)F)C1 (stereo not shown) [Compound 341, 1-(8-methyl-2-(2,2,2-trifluoroethyl)-3,4-dihydro-1H-pyrido[4,3-b]indol-5(2H)-yl)-2-(pyridin-4-yl)propan-2-ol]
48 | 11 | – | Cc1ccc2c(c1)c1c(n2CC(C)(O)c2ccncc2)CCN(C2CC2)C1 (stereo not shown) [Compound 342, 1-(2-cyclopropyl-8-methyl-3,4-dihydro-1H-pyrido[4,3-b]indol-5(2H)-yl)-2-(pyridin-4-yl)propan-2-ol]
22 | 9 | – | COc1cccc2c3c(n(CC(C)(O)c4ccncc4)c12)CCN(C)C3 (stereo not shown) [Compound 343, 1-(6-methoxy-2-methyl-3,4-dihydro-1H-pyrido[4,3-b]indol-5(2H)-yl)-2-(pyridin-4-yl)propan-2-ol]
7 | 10 | – | CC(C)c1ccc2c3c(n(CC(C)(O)c4ccncc4)c2c1)CCN(C)C3 (stereo not shown) [Compound 344, 1-(7-isopropyl-2-methyl-3,4-dihydro-1H-pyrido[4,3-b]indol-5(2H)-yl)-2-(pyridin-4-yl)propan-2-ol]
56 | 15 | – | Cc1ccc2c(c1)c1c(n2CC(C)(O)c2ccncc2)CC(C)N(C)C1 (stereo not shown) [Compound 345, 2-(pyridin-4-yl)-1-(2,3,8-trimethyl-3,4-dihydro-1H-pyrido[4,3-b]indol-5(2H)-yl)propan-2-ol]
17 | 26 | – | C/C(=C\n1c2c(c3cc(Cl)ccc31)CN(C)CC2)c1cncnc1 [Compound 346, (E)-8-chloro-2-methyl-5-(2-(pyrimidin-5-yl)prop-1-enyl)-2,3,4,5-tetrahydro-1H-pyrido[4,3-b]indole]
92 | – | 49 | C=C(Cn1c2c(c3cc(Cl)ccc31)CN(C)C(C)C2)c1ccncc1 (stereo not shown) [Compound 365, 8-chloro-2,3-dimethyl-5-(2-(pyridin-4-yl)allyl)-2,3,4,5-tetrahydro-1H-pyrido[4,3-b]indole]
64 | – | 48 | C/C(=C\n1c2c(c3cc(Cl)ccc31)CN(C)CC2)C1CCCCC1 [Compound 367, (E)-8-chloro-5-(2-cyclohexylprop-1-enyl)-2-methyl-2,3,4,5-tetrahydro-1H-pyrido[4,3-b]indole]
82 | – | 74 | C/C(=C/n1c2c(c3cc(C)ccc31)CN(C)CC2)C1CCCCC1 [Compound 368, (Z)-5-(2-cyclohexylprop-1-enyl)-2,8-dimethyl-2,3,4,5-tetrahydro-1H-pyrido[4,3-b]indole]
29 | – | 64 | C/C(=C/n1c2c(c3cc(Cl)ccc31)CN(C)CC2)C1CCCCC1 [Compound 369, (Z)-8-chloro-5-(2-cyclohexylprop-1-enyl)-2-methyl-2,3,4,5-tetrahydro-1H-pyrido[4,3-b]indole]
72 | – | 63 | C/C(=C\n1c2c(c3cc(Cl)ccc31)CN(C)CC2)c1nccs1 [Compound 370, (E)-2-(1-(8-chloro-2-methyl-3,4-dihydro-1H-pyrido[4,3-b]indol-5(2H)-yl)prop-1-en-2-yl)thiazole]
19 | 23 | – | CN1CCc2c(c3cc(Cl)ccc3n2/C=C(/c2ccncc2)C(C)(C)C)C1 [Compound No. 286, (E)-8-chloro-5-(3,3-dimethyl-2-(pyridin-4-yl)but-1-enyl)-2-methyl-2,3,4,5-tetrahydro-1H-pyrido[4,3-b]indole]
61 | – | 14 | CC(C)=C(Cn1c2c(c3cc(Cl)ccc31)CN(C)CC2)c1ccncc1 [Compound No. 357, 8-chloro-2-methyl-5-(3-methyl-2-(pyridin-4-yl)but-2-enyl)-2,3,4,5-tetrahydro-1H-pyrido[4,3-b]indole]
47 | – | 14 | CC(C)=C(Cn1c2c(c3cc(C)ccc31)CN(C)CC2)c1ccncc1 [Compound No. 358, 2,8-dimethyl-5-(3-methyl-2-(pyridin-4-yl)but-2-enyl)-2,3,4,5-tetrahydro-1H-pyrido[4,3-b]indole]
47 | – | 36 | C/C=C(\Cn1c2c(c3cc(Cl)ccc31)CN(C)CC2)c1ccncc1 [Compound No. 360, (Z)-8-chloro-2-methyl-5-(2-(pyridin-4-yl)but-2-enyl)-2,3,4,5-tetrahydro-1H-pyrido[4,3-b]indole]

SMILES | inhibition at 1 µM (histamine receptor H1) [%] | inhibition at 1 µM [1, 2] [%] | inhibition at 1 µM [1, 3] [%]
C/C(=C\n1c2c(c3cc(C)ccc31)CN(C)CC2)c1cc(Cl)cc(Cl)c1 [compound 410, (E)-5-(2-(3,5-dichlorophenyl)prop-1-enyl)-2,8-dimethyl-2,3,4,5-tetrahydro-1H-pyrido[4,3-b]indole] | – | – | 47
